pIC50: −log10 of the molar value.

This note sets out measurements from patent US5622947A, “Benzoheterocyclic compounds and vasopressin antagonist and oxytocin antagonist compositions containing a benzoheterocyclic compound” (Otsuka Pharmaceutical Co., Ltd., priority 1992, dated 1997).

In the first test the target is T1, Oxytocin receptor (uterin muscle membrane preparation) (Rattus norvegicus, UniProt P70536).
T1 construct: was homogenized, which was used as a membrane; from tissue; host or cells: uterine muscle membranes from diethylstilbestrol-treated animals
T1 sequence (P70536 1-388): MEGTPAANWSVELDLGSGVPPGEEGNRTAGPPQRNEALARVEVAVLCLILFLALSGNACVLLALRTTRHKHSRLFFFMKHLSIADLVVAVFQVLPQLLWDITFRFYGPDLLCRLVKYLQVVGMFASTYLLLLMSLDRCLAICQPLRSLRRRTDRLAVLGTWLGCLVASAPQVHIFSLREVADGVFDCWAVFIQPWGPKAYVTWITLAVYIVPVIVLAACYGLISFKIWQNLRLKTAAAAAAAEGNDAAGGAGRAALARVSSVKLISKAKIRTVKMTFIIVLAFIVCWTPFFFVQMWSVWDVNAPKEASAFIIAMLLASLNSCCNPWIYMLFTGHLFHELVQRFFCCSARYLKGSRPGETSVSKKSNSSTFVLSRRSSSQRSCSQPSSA
Kind of test: Oxytocin receptor binding assay. Conditions: [3H]-oxytocin 10^-9 M, 25°, one hour, pH 8.0, uterin muscle membrane, DES-treated. Here is the method:
Test-5 Oxytocin receptor binding assay
In accordance with Chan's method [by W. Y. Chan, et al.: Endocrinology, 126, 2095-2101 (1990)], the uterin muscle benn injected subcutaneously with diethylstilbe-sterol (DES) the day before and was homogenized, which was used as a membrane prepara tion. The membrane preparation (0.2 mg), [^3 H]-oxytocin (100,000 dpm, 10^-9 M), a test compound (10^-9 to 10^-5 M) were incubated at 25°. for one hour in 100 mM Tris-HCl buffer (pH=8.0, 250 μl) containing 5 mM MgCl2, 1 mM EDTA and 0.1% BSA. The mixture was filtered through a glass filter (GF/F) so as to separate the membrane preparation combining with [^3 H]-oxytocin, then, was washed twicw with the buffer (5 ml). The glass filter was put into a vial and mixed with Aquasole (a liquid scintillation cocktail). The amount of [^3 H]-oxytocin combining w ith the membrane was measured by a liquid scintillation counter. The rate of the inhibitory effect of the test compound was calculated according to the equation as follows: […]
C1 : the amount of [^3 H]-oxytocin combining with the membrane in the presence of a test compound (in known amount),
C0 : the amount of [^3 H]-oxytocin combinig with the membrane in the absence of a test compound,
B: the amount of [^3 H]-oxytocin combining with the membrane in the presence of the excess amount of oxytocin (5×10^-6 M).
The results are expressed as IC50 values, which is the concentration of the test compound required to achieve the inhibitory effect in the rate of 50%.
Turning to `CN1CCN(C(=O)CC2CCCN(C(=O)c3ccc(NC(=O)c4ccccc4)cc3)c3ccc(Cl)cc32)CC1` (stereo not drawn) [Example 178, 5-(4-Methyl-1-piperazinyl)carbonylmethyl-7-chloro-1-(4-benzoylaminobenzoyl)-2,3,4,5-tetrahydro-1H-benzoazepine], the pIC50 was 6.01. Take `COc1cc(C(=O)N2CCCC(CC(=O)N(C)C)c3cc(Cl)ccc32)ccc1NC(=O)c1ccccc1Br` (stereo not drawn) [Example 120, 5-Dimethylaminocarbonylmethyl-7-chloro-1-[3-methoxy-4-(2-bromobenzoylamino)benzoyl]-2,3,4,5-tetrahydro-1H-benzoazepine]: the pIC50 is 6.72. Against the preceding compound, the pIC50 is 0.71 log units higher.

In the case of `Cc1ccccc1C(=O)Nc1ccc(C(=O)N2CCCC(CCN3CCOCC3)c3cc(Cl)ccc32)c(C)c1` (stereo not drawn) [Example 124, 5-Morpholinoethyl-7-chloro-1-[2-methyl-4-(2-methylbenzoylamino)benzoyl]-2,3,4,5-tetrahydro-1H-benzoazepine], the pIC50 was 5.55. This pIC50 is 1.17 log units lower than that of the compound before. `Cc1ccccc1CC(=O)Nc1ccc(C(=O)N2CCCC(O)c3cc(Cl)ccc32)cc1` (stereo not drawn) [Example 106, 5-Hydroxy-7-chloro-1-{4-[2-(2-methylphenyl)acetylamino]benzoyl}-2,3,4,5-tetrahydro-1H-benzoazepine] had a pIC50 of 6.22. In the case of `CC(=O)N1CCN(CCC2CCCN(C(=O)c3ccc(NC(=O)c4ccccc4C)cc3Cl)c3ccc(Cl)cc32)CC1` (stereo not drawn) [Example 174, 5-[2-(4-Acetyl-1-piperazinyl)ethyl]-7-chloro-1-[2-chloro-4-(2-methylbenzoylamino)benzoyl]-2,3,4,5-tetrahydro-1H-benzoazepine], the pIC50 is 5.98. Compared with the last compound, the pIC50 is 0.24 log units lower. In turn, `C=CCNCCC1CCCN(C(=O)c2ccc(NC(=O)c3ccccc3Cl)cc2C)c2ccc(Cl)cc21` (stereo not drawn) [Example 121, 5-(2-Allylaminoethyl)-7-chloro-1-[2-methyl-4-(2-chlorobenzoylamino)benzoyl]-2,3,4,5-tetrahydro-1H-benzoazepine] gave a pIC50 of 5.64. In turn, `CC(=O)NC1CCN(CCCCOc2ccc(Cl)c(C(=O)Nc3ccc(C(=O)N4CCCCc5cc(Cl)ccc54)cc3)c2)CC1` [Example 184] had a pIC50 of 5.44. Against the preceding compound, the pIC50 is 0.20 log units lower. On the same count and under the same terms, with `COc1cc(NC(=O)c2ccccc2Cl)ccc1C(=O)N1CCCC(CC(=O)N2CCN(c3ccccc3Cl)CC2)c2cc(Cl)ccc21` (stereo not drawn) [Example 181] the figure was 6.22; with `Cc1ccccc1C(=O)Nc1ccc(C(=O)N2CCCC(CC(=O)N3CCN(C)CC3)c3cc(Cl)ccc32)cc1` (stereo not drawn) [Example 109], 6.44.

The target of another test is T2, V2 Recepter (rat kidney plasma membrane preparations) (Rattus norvegicus, UniProt Q00788).
T2 construct: rat kidney plasma membrane preparations; from tissue; host or cells: rat kidney plasma membranes
T2 sequence (Q00788 whole entry): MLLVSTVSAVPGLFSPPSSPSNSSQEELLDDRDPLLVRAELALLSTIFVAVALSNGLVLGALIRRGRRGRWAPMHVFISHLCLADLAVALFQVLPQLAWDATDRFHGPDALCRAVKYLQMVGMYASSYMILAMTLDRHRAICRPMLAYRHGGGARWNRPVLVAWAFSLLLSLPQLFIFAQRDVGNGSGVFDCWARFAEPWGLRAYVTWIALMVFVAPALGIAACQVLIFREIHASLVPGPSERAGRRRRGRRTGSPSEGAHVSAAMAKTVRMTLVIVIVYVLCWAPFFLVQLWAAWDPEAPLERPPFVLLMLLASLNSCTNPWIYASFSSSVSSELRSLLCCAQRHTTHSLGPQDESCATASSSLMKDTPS
As to the kind of experiment: V2 Recepter binding assay. Conditions: [3H]-Arg-vasopressin 4×10^-10 M, 4° C., pH 8.0, rat kidney plasma membrane. Here is the method:
Test 2: V2 Recepter binding assay
By using rat kidney plasma membrane preparations prepared according to Hechter's method [by O. Hechter: J. Bio. Chem., 2.53, 3211 (1978)], the plasma membrane (100,000 dpm, 4×10^-10 M) of [^3 H]-Arg-vasopressin and a test compound (0.6 mg, 10^-10 to 10^-5 M) were incubated at 4° C. for 3 hours in 250 μl (in total volume) of 100 mM Tris-HCl buffer (pH=8.0), containing, 5 mM MgCl2, 1 mM EDTA and 0.1% BSA. After the incubation, the mixture, the mixture was filtered by using a glass filter (GF/F) so as to separate the membrane preparation combining with vasopressin, then washed twice with the buffer (5 ml). This glass filter was taken out and mixed with liquid scintillation cocktail. The amount of [^3 H]-vasopressin combining with the membrane was measured by a liquid scintillation counter and the rate of inhibitory effect of the test compound was calculated according to the following equation: Rate of the inhibitory
C1 : the amount of [^3 H]-vasopressin combining with the membrane in the presence of the testcompound of a known amount,
C0 : the amount of [^3 H]-vasopressin combining with the membrane in the absence of the test compound,
B1 : the amount of [^3 H]-vasopressin combining with the mebrane in the presence of the excess amount of vasopressin (10^-6 M).
The results are expressed as IC50 value, which is the concentration of the test compound required to achieve the inhibitory effect in the rate of 50%, and are shown in the following Table 157.
`Cc1cc(NC(=O)c2ccccc2Cl)ccc1C(=O)N1CCCC(CCN2CCOCC2)c2cc(Cl)ccc21` (stereo not drawn) [Example 95] gave a pIC50 of 7.77.

For the compound `CC(=O)NC1CCN(CCC2CCCN(C(=O)c3ccc(NC(=O)c4ccccc4Cl)cc3C)c3ccc(Cl)cc32)CC1` (stereo not drawn) [Example 76, 5-[2-(4-Acetylamino-1-piperidinyl)ethyl]-7-chloro-1-[2-methyl-4-(2-chlorobenzoylamino)benzoyl]-2,3,4,5-tetrahydro-1H-benzoazepine], the pIC50 was 7.85.

`Cc1cc(NC(=O)c2ccccc2Cl)ccc1C(=O)N1CCCC(CCn2cnnn2)c2cc(Cl)ccc21` (stereo not drawn) [Example 98] gave a pIC50 of 8.05. On the same count and under the same terms, with `Cc1cc(NC(=O)c2ccccc2Cl)ccc1C(=O)N1CCCC(OCCn2cncn2)c2cc(Cl)ccc21` (stereo not drawn) [Example 92] the figure was 8.13; with `C=CCN(C)CCC1CCCN(C(=O)c2ccc(NC(=O)c3ccccc3Cl)cc2C)c2ccc(F)cc21` (stereo not drawn) [Example 129, 5-[2-(N-Allyl-N-methylamino)ethyl]-7-fluoro-1-[2-methyl-4-(2-chlorobenzoylamino)benzoyl]-2,3,4,5-tetrahydro-1H-benzoazepine], 7.92.

Turning to `Cc1cc(NC(=O)c2ccccc2Cl)ccc1C(=O)N1CCCC(OCCn2cnnn2)c2cc(Cl)ccc21` (stereo not drawn) [Example 93, 5-[2-(1,2,3,4-Tetrazol-1-yl)ethoxy]-7-chloro-1-[2-methyl-4-(2-chlorobenzoylamino)benzoyl]-2,3,4,5-tetrahydro-1H-benzoazepine], the pIC50 is 7.85.

For orientation: pIC50 means −log10 of the IC50, conventionally taken in molar units. A high value points to a low IC50.
